Values of other authors, collected in PMC4203335 (International Journal of Oncology, 2014).

What was measured:
[1] = mice
[2] = test system: Burkitt lymphoma xenografts
[3] = test system: N-Myc-induced neuroblastoma

In the case of `O=c1[nH]c(=S)[nH]c(-c2ccccc2)c1Cc1c(O)ccc2ccccc12` [Cambinol], the tolerability [1] is listed as “well tolerated” and the growth of xenografts [2] is listed as “significantly inhibited”.
In the case of `CN(C)CCCCC(=O)Nc1ccc(NC(=S)NC(=O)c2ccc(C(C)(C)C)cc2)cc1` [Tenovin-6], the tumorigenesis (melanoma) is given as “suppressed tumorigenesis” and the tumorigenesis [3] is given as “suppressed tumorigenesis”.
For `CC(C)=CCC[C@]1(C)[C@@H](CC=C(C)C)C[C@@]2(CC=C(C)C)C(=O)[C@]1(C(=O)C(C)C)C(=O)C(CC=C(C)C)=C2OCC(=O)O` [aristoforin], the SIRT1 inhibitory activity (SIRT1) is listed as “have SIRT1 inhibitory activity”.
In the case of guttiferone G, the SIRT1 inhibitory activity (SIRT1) is listed as “have SIRT1 inhibitory activity”.
For inauhzin, the xenograft growth (colon xenograft) is given as “reduced colon xenograft growth”.
